The source of these data is patent US8790678B2, “Biomaterials having nanoscale layers and coatings” (Washington University, priority 2006, dated 2014).

Bridges are numbered along the chain shown (N, C = ends). Where no end group is shown, it is not given here. Where only a bound is given, the exact number is not on record here.

Data set [1] relates to chorioallantoic membrane (CAM). Kind of data set: Chick chorioallantoic membrane (CAM) angiogenesis assay. The format is in vivo, chicken. Particulars: 50 ng spotted on Thermanox coverslip, two days. As for the experimental part: Embryonated chicken eggs were incubated blunt-end up in a 37° C. incubator. At embryonal day 6, the top of the egg was cracked and removed using tweezers to create a 1.5 cm diameter opening. The inner shell membrane was removed, exposing the CAM. A 20 μL PEG hydrogel was then placed onto the CAM. As controls, 50 ng bFGF or 50 ng S1P were spotted onto small pieces of Thermanox coverslips (Nunc), air dried and placed onto the CAM. The eggs were sealed with parafilm and returned to the incubator. After two days of incubation, the eggs were reopened and the degree of angiogenesis was visually assessed.

The nature of data set [2]: Hydrogel mesh size by modified SDS-PAGE gel. The data set is classed as physicochemical. The settings on record: PEG-OVS/albumin layer in SDS-PAGE gel. As for the experimental part:
The mesh size of PEG-OVS/albumin hydrogels was investigated using a modified SDS-PAGE gel to characterize the migration of albumin through the PEG hydrogels. A 15% acrylamide gel was formed at the bottom of the casting chamber, with a spacer to form a well on the left side of the gel. After the acrylamide solidified, the PEG-OVS/albumin precursor solution was pipetted into the formed well. The casting stand was placed in a humidified 37° C. incubator for 24 h to crosslink the PEG gel. A 7% acrylamide gel was formed over the polymerized gels, followed by a stacking gel. A solution of bovine serum albumin (BSA) was loaded into the wells of the gel, which was run under standard conditions. The gel was stained with Coomassie Blue.

The test system of data set [3] is Human aortic endothelial cells. Kind of data set: Single cell tracking on RGD/PEG-OVS/albumin hydrogels under fluid shear stress. The format is cell-based. Particulars: for loss of cells from the hydrogel: highest RGD concentration, over 12 h. As for the experimental part: Human aortic endothelial cells seeded onto RGD/PEG-OVS/albumin hydrogels at 1000-2000 cells/cm^2 were tracked under 20 dynes/cm^2 fluid shear stress in HEPES-buffered low serum medium (HEPES-LSM; MCDB 131 with 0.1% FBS, 1% ABAM, […] HEPES, pH 7.4) containing 0.4% FAF-BSA for 12 h.
Time lapse microscopy images were obtained every 2 min for 12 h of endothelial cell migration on the surface of RGD containing PEG hydrogels. The percent of cells remaining on the gels during the course of the experiment was recorded for each RGD concentration. The projected cell areas of all cells were determined by manually outlining the cells after 3 h under 20 dyne/cm^2 shear stress. Single endothelial cells were manually tracked for 12 h to obtain XY-coordinate data for the center of each cell. Coordinate data from every six minutes (Δt=6 min) for all cells in each experiment were saved as variables for analysis in MATLAB (The MathWorks, Natick, Mass.). At each time point i, ti=iΔt, the mean squared displacement was calculated using the overlapping interval method. The speed of each individual was calculated by dividing the root mean-square displacement for a single time interval by the tracking interval (6 min). Each cell's persistence time was determined by fitting the persistent random walk model given by Equation 1: <d^2(t)>=2S^2P[t−P(1−e^−t/P)] [1] using the calculated speed by nonlinear least squares regression analysis as previously described (Dunn 1983; Othmer, Dunbar and Alt 1988; Harms et al. 2005). Speed simply represents the total path length of a cell over time. Persistence time represents the time period between changes in the direction of movement of more than 60°. Path length is calculated as the product of speed and persistence time. Cell dispersion is the product of speed squared and persistence time. Cell areas were obtained by manually tracing cells. All data was analyzed by ANOVA Scheffe post hoc. Endothelial Response to Linear RGD Concentration—Cell Attachment Strength

Data set [4] has as its system Human Umbilical Vein Endothelial Cells (HUVEC). Kind of data set: Cell adhesion assay on layer-by-layer PEG hydrogel coatings. The data set is classed as cell-based. The settings on record: RGD peptide attached to PEG-VS/PEG-diamine hydrogel; medium containing serum proteins. As for the experimental part: Hydrogels were formed layer-by-layer by conjugate addition reactions between PEG-VS and PEG-diamine. First, the surface of the substrate was activated to create reactive amine groups. Clean glass coverslips were incubated in 2% 3-aminopropyltriethoxysilane in dry acetone solution for one hour with gentle shaking. The aminophase coverslips were then cured at 100° C. for a 3 h, and stored in a clean Petri dish until use. The activated substrates were incubated with a solution containing 1% eight-arm PEG-VS overnight at pH 8.5 and 37° C. The substrates were subsequently incubated with a solution of 1% PEG-diamine (mol. wt. 3400, Shearwater Polymers) for 1 h at 37° C. This two-step process was repeated to create multiple layers (one layer comprises PEG-VS+PEG-diamine). Between incubations with PEG-VS or PEG-diamine, the surfaces were washed six times with PBS. After the formation of five layers, the substrates were incubated with PEG-VS for 1 h at 37° C. […]
The RGD peptide acetyl-GCGYGRGDSPG [SEQ ID NO. […] The peptide was purified by C18 chromatography and analyzed by MALDI-TOF mass spectrometry. […]
Human Umbilical Vein Endothelial Cells (HUVEC, Clonetics) were grown in endothelial cell growth medium (EGM, Clonetics) on tissue culture polystyrene at 37° C. and 5% CO2. […] Cells on the surfaces were imaged by phase contrast microscopy and the number of cells was counted manually.

Data set [5] relates to HAEC. Kind of data set: Centrifugation assay of cell adhesion strength on RGD hydrogels. The format is cell-based, human. Particulars: range as RGD concentration in PEG-OVS/albumin hydrogel was increased; 6 h adhesion. As for the experimental part:
Cell adhesion strengths to the RGD containing hydrogel surfaces were assessed using a centrifugation assay to apply controlled detachment forces. PEG hydrogels (75 μL) of various concentrations of RGD were formed on the bottom of a 48-well non-treated culture plate. Following crosslinking for 24 h, HAEC were seeded onto the gels at 10,000 cells/cm^2 in 500 μL EGM. After 6 h to allow the cells to attach and spread, the gels were washed with DPBS. The wells were filled with DPBS to the top of the wells and then covered with adhesive sealing tape. Images were obtained at 4× to quantify the number of cells initially attached to the hydrogel. […] The percent of cells remaining on the hydrogel was quantified. […]
The effects of changing the linear RGD concentration on the initial adhesion strength of endothelial cells to PEG-OVS/albumin hydrogels were examined. […] Cell adhesion strengths were assessed by centrifugation of inverted, sealed plates containing hydrogels polymerized in the bottoms of wells. The percent of cells remaining adhered to the hydrogels after centrifugation for 5 min was measured for various forces of detachment on each concentration of linear RGD. […]
The initial adhesion strength of endothelial cells to the PEG hydrogels containing cyclic RGD peptide was measured after 6 hours to allow for endothelial cell adhesion. […]

The nature of data set [6]: Sulforhodamine B release from preloaded hydrogels. The data set is classed as physicochemical. The settings on record: 500 nmol preloaded, 554 nm. As for the experimental part: The effect of gel mesh size on the diffusion of small molecules was tested using a water-soluble dye molecule, sulforhodamine B. Sulforhodamine B (500 nmol) was preloaded into gels formed with PEG-OVS crosslinked with albumin, PEG-diamine, or DTT. The gels were incubated win PBS and the release of sulforhodamine B was detected by visible light spectroscopy at 554 nm over time. The molecular weight of sulforhodamine is 580.7, compared to 379.5 for S1P, and the diffusivity of the dye would be expected to be lower than that of S1P. Using the Wilke-Chang correlation, we calculated a diffusion coefficient of 3.42×10^−6 cm^2/sec for sulforhodamine and 4.15×10^−6 cm^2/sec for S1P, both at 37° C.

The subject of data set [7] is D-erythro-sphingosine. The experiment in a line: Activity of GST-tagged sphingosine kinase by TLC. The format is biochemical, human. Particulars: 10 μg/mL protein, 50 μM D-erythro-sphingosine. An excerpt: Hydrogels were formed with the enzyme sphingosine kinase to produce S1P in the materials from a precursor (sphingosine) naturally present in the blood. Human sphingosine kinase was cloned by RT-PCR from human umbilical vein endothelial cell mRNA. The PCR insert with the correct sequence was transferred from the cloning vector to the expression vector, pGEX-6P-1, using the restriction enzymes EcoRI and XhoI, to create an N-terminal GST-tagged sphingosine kinase [SEQ ID NO. 1]. The plasmid with the correct sequence was transfected into BL21 E. coli and the cells were grown to OD600 0.6 in LB medium. Protein expression was induced with 1 mM IPTG. After 3 h, the cells were harvested by centrifugation for 20 min at 6000 g, 4° C. The cells were lysed with lysozyme and sonication. The lysate was centrifuged at 50,000 g for 45 min at 4° C. and the supernatant was filtered. The GST-containing protein was purified using GSTrap FF columns. Activity of the protein (10 μg/mL) was assessed by incubation with 50 μM D-erythro-sphingosine and […] in 0.1% BSA in PBS for 0-30 min, followed by dilution 1:1 with methanol and acidification to pH 1 with HCl. Lipids were extracted into chloroform and analyzed by thin layer chromatography on silica plates with butanol-acetic acid-water 6:2:2, with detection by ninhydrin. There was complete conversion to sphingosine 1-phosphate within 30 min.

Take “bFGF: control angiogenic factor in CAM assay”: the angiogenic response entry in data set [1] is “strong angiogenic responses”.

With “Albumin: bovine serum albumin loaded on the SDS-PAGE gel”, the “migration of protein through the PEG hydrogel” value in data set [2] is “hindered”.

For aprotinin, the “migration of protein through the PEG hydrogel” value in data set [2] is “freely passed through”.

In the case of “Ac-GCNAC*RGDGWC*G (Ac-GCNACRGDGWCG; disulfide 5-11) [cyclic RGD, cyclic RGD peptide cyclized by disulphide formation]”, in data set [3] (0.69 mM cyclic RGD, 100 nM S1P), the “cell migration speed relative to cells without RGD” value is recorded as “more than twice” and the “migration speed greater than the highest speed on linear RGD with 100 nM S1P” value stood at 44%. The “loss of cells from the hydrogel” value in data set [3] (20 dyne/cm^2) is “about 20%”. Also, the “RGD concentration of peak migration speed” value in data set [3] (with 100 nM S1P, 20 dyne/cm^2) was determined as 0.69 mM.

Consider “acetyl-GCGYGRGDSPG (Ac-GCGYGRGDSPG; not fully specified (C-terminus); printed as acetyl-GCGYGRGDSPG) [linear RGD, cell adhesion-promoting peptide]”, for which the “HUVEC adhesion to multilayered PEG hydrogel” value in data set [4] is listed as “restored HUVEC adhesion”. Further, the “loss of cells from the hydrogel” value in data set [3] (20 dyne/cm^2) is recorded as “less than 5%”. Also, in data set [3] (without S1P), the “RGD concentration of maximum dispersion” value is reported as 4.12 mM and the “RGD concentration of maximum path length” value came out at 4.12 mM. Also, the “RGD concentration of maximum cell speed” value in data set [3] (without S1P, 20 dynes/cm^2) worked out at 4.12 mM. Also, the “detachment force required to remove 50% of the cells (F50)” value in data set [5] was 850-1120 pN.

Take `CCN(CC)c1ccc2c(-c3ccc(S(=O)(=O)O)cc3S(=O)(=O)[O-])c3ccc(=[N+](CC)CC)cc-3oc2c1` [sulforhodamine B]: the “time to near complete release of dye into PBS” value in data set [6] is approximately 6 h.

Consider “lysozyme: molecular weight marker (14.4 kDa)”, for which the “migration of protein through the PEG hydrogel” value in data set [2] is reported as “freely passed through”.

Take “N-terminal GST-tagged sphingosine kinase: human sphingosine kinase cloned from HUVEC mRNA with N-terminal GST tag”: the “time to complete conversion to sphingosine 1-phosphate” value in data set [7] is reported as not above 30 min.
